Results taken from patent US9233981B1, “Substituted phenyl hexahydropyrano[3,4-d][1,3]thiazin-2-amine compounds” (Pfizer Inc., priority 2013, dated 2016).

Key:
BACE1 enzyme = BACE1 enzyme (Homo sapiens (Human), UniProt P56817); assay: BACE1 Cell-Free Assay (fluorescence polarization, cleavage of synthetic APP substrate); type: biochemical; conditions: geometric mean of 2-3 determinations; Examples 32-34 (footnote b) single determination
Excerpt: Beta-secretase (BACE) is one of the enzymes involved in the generation of the amyloid beta peptide found in the amyloid plaques of Alzheimer's Disease patients. This assay measures the inhibition of the beta-secretase enzyme as it cleaves a non-native peptide.
A synthetic APP substrate that can be cleaved by beta-secretase having N-terminal biotin and made fluorescent by the covalent attachment of Oregon Green at the Cys residue is used to assay beta-secretase activity in the presence or absence of the inhibitory compounds. The substrate is Biotin-GLTNIKTEEISEISY^EVEFR-C[Oregon Green]KK-OH. The BACE1 enzyme is affinity purified material from conditioned media of CHO-K1 cells that have been transfected with a soluble BACE construct (BACE1deltaTM96His). Compounds are incubated in a log dose response curve from a top concentration of 100 μM with BACE1 enzyme and the biotinylated fluorescent peptide in 384-well black plates (Thermo Scientific #4318). BACE1 is at a final concentration of 0.1 nM with a final concentration of peptide substrate of 150 nM in a reaction volume of 30 μL assay buffer [100 mM sodium acetate, pH 4.5 (brought to pH with acetic acid), and 0.001% Tween-20]. Plates are covered and incubated for 3 hours at 37° C. The reaction is stopped with the addition of 30 μL of 1.5 μM Streptavidin (Pierce, #21125). After a 10 minute incubation at room temperature, plates are read on a PerkinElmer EnVision for fluorescence polarization (Ex485 nm/Em530 nm). The activity of the beta-secretase enzyme is detected by changes in the fluorescence polarization that occur when the substrate is cleaved by the enzyme.

[1] = system: sAPPβ levels in H4 human neuroglioma cells over-expressing the wild-type human APP695; assay: Whole Cell Assay (In Vitro sAPPβ Assay), TMB-ELISA; type: cell-based; conditions: 18 hours, geometric mean of 2-3 determinations, Examples 32-34 (footnote b) single determination
Method: Whole Cell Assay (In Vitro sAPPpβ Assay):
H4 human neuroglioma cells over-expressing the wild-type human APP695 are treated for 18 hours with compound in a final concentration 1% DMSO. sAPPβ levels are measured using TMB-ELISA with capture APP N-terminal antibody (Affinity BioReagents, OMA1-03132), wild-type sAPPβ specific reporter p192 (Elan), and tertiary anti rabbit-HRP (GE Healthcare).

BACE1 enzyme, sequence (P56817 46-457): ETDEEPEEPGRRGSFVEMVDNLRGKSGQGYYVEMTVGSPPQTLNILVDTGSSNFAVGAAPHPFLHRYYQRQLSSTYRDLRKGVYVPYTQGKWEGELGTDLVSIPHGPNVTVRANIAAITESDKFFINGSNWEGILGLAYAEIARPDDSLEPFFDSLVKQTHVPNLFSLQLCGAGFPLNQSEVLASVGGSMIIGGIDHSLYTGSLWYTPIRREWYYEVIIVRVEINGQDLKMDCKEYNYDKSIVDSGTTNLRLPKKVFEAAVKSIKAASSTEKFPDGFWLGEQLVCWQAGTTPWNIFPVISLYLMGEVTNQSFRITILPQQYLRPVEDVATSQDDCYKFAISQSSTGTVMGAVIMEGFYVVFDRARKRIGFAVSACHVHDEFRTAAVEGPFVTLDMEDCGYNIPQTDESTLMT

| IC50 (BACE1 enzyme) [nM] | IC50 [1] [nM] | SMILES |
| --- | --- | --- |
| 14 | 0.006 | NC1=N[C@@]2(c3ccc(F)cc3F)CO[C@@H](c3ccc(F)cc3)C[C@H]2CS1 [Example 1, (4aR,6R,8aS)-8a-(2,4-difluorophenyl)-6-(4-fluorophenyl)-4,4a,5,6,8,8a-hexahydropyrano[3,4-d][1,3]thiazin-2-amine] |
| 86 | 0.055 | NC1=N[C@@]2(c3ccc(F)cc3F)CO[C@@H](c3ccccc3F)C[C@H]2CS1 [Example 3, (4aR,6R,8aS)-8a-(2,4-difluorophenyl)-6-(2-fluorophenyl)-4,4a,5,6,8,8a-hexahydropyrano[3,4-d][1,3]thiazin-2-amine] |
| 39 | 0.025 | NC1=N[C@@]2(c3ccc(F)cc3F)CO[C@@H](c3ccc(F)cc3F)C[C@H]2CS1 [Example 4, (4aR,6R,8aS)-6,8a-bis(2,4-difluorophenyl)-4,4a,5,6,8,8a-hexahydropyrano[3,4-d][1,3]thiazin-2-amine] |
| 24 | 0.005 | Cc1ccc([C@H]2C[C@H]3CSC(N)=N[C@@]3(c3ccc(F)cc3F)CO2)cc1 [Example 6, (4aR,6R,8aS)-8a-(2,4-difluorophenyl)-6-(4-methylphenyl)-4,4a,5,6,8,8a-hexahydropyrano[3,4-d][1,3]thiazin-2-amine] |
| 970 | 0.665 | Cc1ccccc1[C@H]1C[C@H]2CSC(N)=N[C@@]2(c2ccc(F)cc2F)CO1 [Example 7, (4aR,6R,8aS)-8a-(2,4-difluorophenyl)-6-(2-methylphenyl)-4,4a,5,6,8,8a-hexahydropyrano[3,4-d][1,3]thiazin-2-amine] |
| 6 | 0.008 | Cc1cc([C@H]2C[C@H]3CSC(N)=N[C@@]3(c3ccc(F)cc3F)CO2)ccc1F [Example 8, (4aR,6R,8aS)-8a-(2,4-difluorophenyl)-6-(4-fluoro-3-methylphenyl)-4,4a,5,6,8,8a-hexahydropyrano[3,4-d][1,3]thiazin-2-amine] |
| 13 | 0.012 | Cc1ccc([C@H]2C[C@H]3CSC(N)=N[C@@]3(c3ccc(F)cc3F)CO2)cc1F [Example 9, (4aR,6R,8aS)-8a-(2,4-difluorophenyl)-6-(3-fluoro-4-methylphenyl)-4,4a,5,6,8,8a-hexahydropyrano[3,4-d][1,3]thiazin-2-amine] |
| 16 | 0.038 | Cc1cc(F)cc([C@H]2C[C@H]3CSC(N)=N[C@@]3(c3ccc(F)cc3F)CO2)c1 [Example 10, (4aR,6R,8aS)-8a-(2,4-difluorophenyl)-6-(3-fluoro-5-methylphenyl)-4,4a,5,6,8,8a-hexahydropyrano[3,4-d][1,3]thiazin-2-amine] |
| 15 | 0.016 | NC1=N[C@@]2(c3ccc(F)cc3F)CO[C@@H](c3ccc(Cl)cc3)C[C@H]2CS1 [Example 12, (4aR,6R,8aS)-6-(4-chlorophenyl)-8a-(2,4-difluorophenyl)-4,4a,5,6,8,8a-hexahydropyrano[3,4-d][1,3]thiazin-2-amine] |
| 97 | 0.222 | NC1=N[C@@]2(c3ccc(F)cc3F)CO[C@@H](c3cccc(C(F)(F)F)c3)C[C@H]2CS1 [Example 13, (4aR,6R,8aS)-8a-(2,4-difluorophenyl)-6-[3-(trifluoromethyl)phenyl]-4,4a,5,6,8,8a-hexahydropyrano[3,4-d][1,3]thiazin-2-amine] |
|  | 0.176 | NC1=N[C@@]2(c3ccc(F)cc3F)CO[C@@H](c3ccc(C(F)(F)F)cc3)C[C@H]2CS1 [Example 14, (4aR,6R,8aS)-8a-(2,4-difluorophenyl)-6-[4-(trifluoromethyl)phenyl]-4,4a,5,6,8,8a-hexahydropyrano[3,4-d][1,3]thiazin-2-amine] |
| 21 | 0.142 | NC1=N[C@@]2(c3ccc(F)cc3F)CO[C@@H](c3ccc(OC(F)(F)F)cc3)C[C@H]2CS1 [Example 15, (4aR,6R,8aS)-8a-(2,4-difluorophenyl)-6-[4-(trifluoromethoxy)phenyl]-4,4a,5,6,8,8a-hexahydropyrano[3,4-d][1,3]thiazin-2-amine] |
| 29 | 0.018 | COc1ccc([C@H]2C[C@H]3CSC(N)=N[C@@]3(c3ccc(F)cc3F)CO2)cc1 [Example 16, (4aR,6R,8aS)-8a-(2,4-difluorophenyl)-6-(4-methoxyphenyl)-4,4a,5,6,8,8a-hexahydropyrano[3,4-d][1,3]thiazin-2-amine] |
| 2210 | 0.691 | COc1ccccc1[C@H]1C[C@H]2CSC(N)=N[C@@]2(c2ccc(F)cc2F)CO1 [Example 17, (4aR,6R,8aS)-8a-(2,4-difluorophenyl)-6-(2-methoxyphenyl)-4,4a,5,6,8,8a-hexahydropyrano[3,4-d][1,3]thiazin-2-amine] |
| 214 | 0.095 | COc1cc([C@H]2C[C@H]3CSC(N)=N[C@@]3(c3ccc(F)cc3F)CO2)ccc1F [Example 18, (4aR,6R,8aS)-8a-(2,4-difluorophenyl)-6-(4-fluoro-3-methoxyphenyl)-4,4a,5,6,8,8a-hexahydropyrano[3,4-d][1,3]thiazin-2-amine] |
| 83 | 0.039 | COc1ccc([C@H]2C[C@H]3CSC(N)=N[C@@]3(c3ccc(F)cc3F)CO2)c(F)c1 [Example 20, (4aR,6R,8aS)-8a-(2,4-difluorophenyl)-6-(2-fluoro-4-methoxyphenyl)-4,4a,5,6,8,8a-hexahydropyrano[3,4-d][1,3]thiazin-2-amine] |
| 335 | 0.216 | COc1cc(F)cc([C@H]2C[C@H]3CSC(N)=N[C@@]3(c3ccc(F)cc3F)CO2)c1 [Example 21, (4aR,6R,8aS)-8a-(2,4-difluorophenyl)-6-(3-fluoro-5-methoxyphenyl)-4,4a,5,6,8,8a-hexahydropyrano[3,4-d][1,3]thiazin-2-amine] |
| 397 | 0.248 | COc1ccc(F)c([C@H]2C[C@H]3CSC(N)=N[C@@]3(c3ccc(F)cc3F)CO2)c1 [Example 22, (4aR,6R,8aS)-8a-(2,4-difluorophenyl)-6-(2-fluoro-5-methoxyphenyl)-4,4a,5,6,8,8a-hexahydropyrano[3,4-d][1,3]thiazin-2-amine] |
| 11 | 0.021 | CCOc1ccc([C@H]2C[C@H]3CSC(N)=N[C@@]3(c3ccc(F)cc3F)CO2)cc1 [Example 23, (4aR,6R,8aS)-8a-(2,4-difluorophenyl)-6-(4-ethoxyphenyl)-4,4a,5,6,8,8a-hexahydropyrano[3,4-d][1,3]thiazin-2-amine] |
| 161 | 0.071 | COCc1cccc([C@H]2C[C@H]3CSC(N)=N[C@@]3(c3ccc(F)cc3F)CO2)c1 [Example 24, (4aR,6R,8aS)-8a-(2,4-difluorophenyl)-6-[3-(methoxymethyl)phenyl]-4,4a,5,6,8,8a-hexahydropyrano[3,4-d][1,3]thiazin-2-amine] |
| 22 | 0.01 | COCc1ccc([C@H]2C[C@H]3CSC(N)=N[C@@]3(c3ccc(F)cc3F)CO2)cc1 [Example 25, (4aR,6R,8aS)-8a-(2,4-difluorophenyl)-6-[4-(methoxymethyl)phenyl]-4,4a,5,6,8,8a-hexahydropyrano[3,4-d][1,3]thiazin-2-amine] |
| 6 | 0.005 | NC1=N[C@@]2(c3ccc(F)cc3F)CO[C@@H](c3ccc4c(c3)CCO4)C[C@H]2CS1 [Example 26, (4aR,6R,8aS)-8a-(2,4-difluorophenyl)-6-(2,3-dihydro-1-benzofuran-5-yl)-4,4a,5,6,8,8a-hexahydropyrano[3,4-d][1,3]thiazin-2-amine] |

| SMILES | IC50 (BACE1 enzyme) [nM] | IC50 [1] [nM] |
| --- | --- | --- |
| NC1=N[C@@]2(c3ccc(F)cc3F)CO[C@@H](c3cccc(F)c3)C[C@H]2CS1 [Example 2, (4aR,6R,8aS)-8a-(2,4-difluorophenyl)-6-(3-fluorophenyl)-4,4a,5,6,8,8a-hexahydropyrano[3,4-d][1,3]thiazin-2-amine] | 22 | 0.009 |
| NC1=N[C@@]2(c3ccc(F)cc3F)CO[C@@H](c3ccc(F)c(F)c3)C[C@H]2CS1 [Example 5, (4aR,6R,8aS)-8a-(2,4-difluorophenyl)-6-(3,4-difluorophenyl)-4,4a,5,6,8,8a-hexahydropyrano[3,4-d][1,3]thiazin-2-amine] | 10 | 0.007 |
| Cc1ccc(F)c([C@H]2C[C@H]3CSC(N)=N[C@@]3(c3ccc(F)cc3F)CO2)c1 [Example 11, (4aR,6R,8aS)-8a-(2,4-difluorophenyl)-6-(2-fluoro-5-methylphenyl)-4,4a,5,6,8,8a-hexahydropyrano[3,4-d][1,3]thiazin-2-amine] | 21 | 0.017 |
| COc1ccc([C@H]2C[C@H]3CSC(N)=N[C@@]3(c3ccc(F)cc3F)CO2)cc1F [Example 19, (4aR,6R,8aS)-8a-(2,4-difluorophenyl)-6-(3-fluoro-4-methoxyphenyl)-4,4a,5,6,8,8a-hexahydropyrano[3,4-d][1,3]thiazin-2-amine] | 44 | 0.023 |
